# According to article PMC7429951 (Journal of Medicinal Chemistry, 2020):
# How the values were obtained:
# [1] = target: T1, collagenase unit of ColQ1 (ColQ1-CU) (Bacillus cereus, UniProt B9J3S4); assay: biochemical; set-up: species or system B. cereus strain Q1; conditions: read-out: ColQ1-CU % inhibition @ 100 μM
# T1 construct: the collagenase unit of ColQ1 (ColQ1-CU) from B. cereus strain Q1
# [2] = target: MMP-3 (Homo sapiens, UniProt P08254); assay: MMP-3 off-target inhibition; assay type: biochemical; conditions: read-out: MMP-3 % inhibition @ 100 μM; 100 μM compound
# From the text: (§1) Previously, we described N-aryl mercaptoacetamides with high selectivity for the bacterial over a broad range of human MMPs.[29],[30] MMPs are calcium-dependent zinc metalloproteases that play a pivotal role in numerous biochemical processes in humans.[39],[40] Based on the depth of their S1′ binding pocket, MMPs can be divided into three classes: deep (e.g., MMP-3 and -14), intermediate (e.g., MMP-2 and -8), and shallow (e.g., MMP-1 and -7). With the aim to explore the interactions of our inhibitors with all three pocket types, which could help us to assess potential effects on other not-tested representatives, we chose a panel of six MMPs, comprising two members of each class. In addition, HDAC-3, HDAC-8, and TACE (ADAM-17)—enzymes involved in gene expression and the processing of TNF-α,[41],[42] respectively—were selected as important additional human off-targets.
# [3] = target: MMP-8 (Homo sapiens, UniProt P22894); assay: MMP-8 off-target inhibition; assay type: biochemical
# From the text: as §1
# [4] = in vitro; conditions: human, HEK293 cells (embryonal kidney)
# [5] = target: T2, TACE (ADAM-17) (Homo sapiens, UniProt P78536); assay: TACE inhibitor screening kit; assay type: biochemical
# T2 construct: purchased Sigma-Aldrich (Saint Louis, MO)
# From the text: as §1
# [6] = target: T3, LasB (Pseudomonas aeruginosa, UniProt Q02RJ6); assay: biochemical; conditions: LasB IC50, FRET-based assay
# [7] = target: T4, HDAC-8 (Homo sapiens, UniProt Q9BY41); assay: HDAC-8 inhibitor screening kit; assay type: biochemical
# T4 construct: purchased Sigma-Aldrich (Saint Louis, MO)
# T4 sequence (Q9BY41 1-377): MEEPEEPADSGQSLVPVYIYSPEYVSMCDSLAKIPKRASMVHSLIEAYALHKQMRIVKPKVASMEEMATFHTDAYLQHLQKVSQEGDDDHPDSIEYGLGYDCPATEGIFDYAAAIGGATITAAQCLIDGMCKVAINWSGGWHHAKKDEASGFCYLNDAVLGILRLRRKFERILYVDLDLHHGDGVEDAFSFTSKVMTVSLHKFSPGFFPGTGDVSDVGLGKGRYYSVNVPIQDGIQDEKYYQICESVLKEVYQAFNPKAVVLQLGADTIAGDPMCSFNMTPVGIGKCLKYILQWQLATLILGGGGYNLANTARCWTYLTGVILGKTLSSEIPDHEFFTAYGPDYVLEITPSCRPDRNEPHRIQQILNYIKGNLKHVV
# From the text: as §1
# [8] = test system: C. histolyticum strain DSM 1126; assay: Bacterial growth inhibition assay (MIC) C. histolyticum; assay type: cell-based, Clostridium histolyticum; conditions: strain DSM 1126, BHI medium, 48 h anaerobic
# [9] = target: peptidase domain of ColH (ColH-PD) (Hathewaya histolytica, UniProt Q46085); assay: biochemical; set-up: species or system Clostridium histolyticum
# [10] = target: peptidase domain of ColT (ColT-PD) (Clostridium tetani, UniProt Q899Y1); assay: biochemical; set-up: species or system C. tetani; conditions: read-out: ColT-PD % inhibition @ 100 μM
# [11] = in vitro; conditions: human, A549 cells (lung carcinoma)
# [12] = target: MMP-14 (Homo sapiens, UniProt P50281); assay: MMP-14 off-target inhibition; assay type: biochemical
# From the text: as §1
# [13] = in vitro; conditions: human, HepG2 cells (hepatocellular carcinoma)
# [14] = target: T5, MMP-7 (Homo sapiens, UniProt P09237); assay: MMP-7 off-target inhibition; assay type: biochemical; conditions: read-out: MMP-7 % inhibition @ 100 μM; 100 μM compound
# T5 sequence (P09237 95-267): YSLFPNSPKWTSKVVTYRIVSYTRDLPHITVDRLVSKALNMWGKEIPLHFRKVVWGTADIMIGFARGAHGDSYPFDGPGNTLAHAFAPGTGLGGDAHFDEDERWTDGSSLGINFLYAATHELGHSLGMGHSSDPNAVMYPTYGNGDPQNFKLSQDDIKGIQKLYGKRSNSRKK
# From the text: as §1
# [15] = target: T3, LasB; conditions: vs 4-OMe analogue
# Chain of peptidase domain of ColH (ColH-PD) (Q46085 331-721 limits assumed): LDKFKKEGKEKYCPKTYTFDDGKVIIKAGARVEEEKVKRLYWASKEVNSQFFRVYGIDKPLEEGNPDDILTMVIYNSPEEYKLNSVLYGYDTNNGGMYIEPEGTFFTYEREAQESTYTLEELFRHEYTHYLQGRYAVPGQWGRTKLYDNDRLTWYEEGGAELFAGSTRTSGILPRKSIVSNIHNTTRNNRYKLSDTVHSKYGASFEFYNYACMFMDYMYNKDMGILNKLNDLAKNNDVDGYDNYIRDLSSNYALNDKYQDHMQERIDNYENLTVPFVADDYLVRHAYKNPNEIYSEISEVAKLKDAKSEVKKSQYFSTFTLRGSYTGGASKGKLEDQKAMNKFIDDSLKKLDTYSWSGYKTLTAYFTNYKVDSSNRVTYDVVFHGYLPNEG
# T3 sequence (Q02RJ6 198-498): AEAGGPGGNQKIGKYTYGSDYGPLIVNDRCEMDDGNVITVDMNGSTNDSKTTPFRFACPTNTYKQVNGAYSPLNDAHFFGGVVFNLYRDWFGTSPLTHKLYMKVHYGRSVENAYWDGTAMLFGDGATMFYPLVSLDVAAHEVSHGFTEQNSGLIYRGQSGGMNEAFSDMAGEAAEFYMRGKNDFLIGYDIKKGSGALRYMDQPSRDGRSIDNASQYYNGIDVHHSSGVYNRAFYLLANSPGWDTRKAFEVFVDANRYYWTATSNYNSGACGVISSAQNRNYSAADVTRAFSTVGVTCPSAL
# Chain of MMP-8 (P22894 101-467): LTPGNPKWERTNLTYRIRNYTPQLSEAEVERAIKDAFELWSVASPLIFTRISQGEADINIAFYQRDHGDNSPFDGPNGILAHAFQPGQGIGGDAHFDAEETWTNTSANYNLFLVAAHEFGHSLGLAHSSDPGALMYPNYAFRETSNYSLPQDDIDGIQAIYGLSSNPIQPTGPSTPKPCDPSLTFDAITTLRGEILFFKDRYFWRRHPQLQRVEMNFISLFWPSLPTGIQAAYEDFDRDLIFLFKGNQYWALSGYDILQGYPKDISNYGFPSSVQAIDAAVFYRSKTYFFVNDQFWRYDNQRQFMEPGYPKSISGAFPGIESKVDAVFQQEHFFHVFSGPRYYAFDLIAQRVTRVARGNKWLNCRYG
# Chain of peptidase domain of ColT (ColT-PD) (Q899Y1 340-731 limits assumed): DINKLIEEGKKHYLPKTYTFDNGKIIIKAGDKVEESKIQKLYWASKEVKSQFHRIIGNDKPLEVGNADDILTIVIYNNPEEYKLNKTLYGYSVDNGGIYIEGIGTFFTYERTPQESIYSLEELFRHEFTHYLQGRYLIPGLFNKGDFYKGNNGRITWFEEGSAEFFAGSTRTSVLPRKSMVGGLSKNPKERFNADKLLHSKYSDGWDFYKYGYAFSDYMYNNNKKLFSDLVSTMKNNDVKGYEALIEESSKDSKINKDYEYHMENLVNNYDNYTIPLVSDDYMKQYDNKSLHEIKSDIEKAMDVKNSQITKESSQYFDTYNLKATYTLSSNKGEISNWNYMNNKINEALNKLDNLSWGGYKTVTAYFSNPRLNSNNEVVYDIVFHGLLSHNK
# T2 sequence (P78536 215-824): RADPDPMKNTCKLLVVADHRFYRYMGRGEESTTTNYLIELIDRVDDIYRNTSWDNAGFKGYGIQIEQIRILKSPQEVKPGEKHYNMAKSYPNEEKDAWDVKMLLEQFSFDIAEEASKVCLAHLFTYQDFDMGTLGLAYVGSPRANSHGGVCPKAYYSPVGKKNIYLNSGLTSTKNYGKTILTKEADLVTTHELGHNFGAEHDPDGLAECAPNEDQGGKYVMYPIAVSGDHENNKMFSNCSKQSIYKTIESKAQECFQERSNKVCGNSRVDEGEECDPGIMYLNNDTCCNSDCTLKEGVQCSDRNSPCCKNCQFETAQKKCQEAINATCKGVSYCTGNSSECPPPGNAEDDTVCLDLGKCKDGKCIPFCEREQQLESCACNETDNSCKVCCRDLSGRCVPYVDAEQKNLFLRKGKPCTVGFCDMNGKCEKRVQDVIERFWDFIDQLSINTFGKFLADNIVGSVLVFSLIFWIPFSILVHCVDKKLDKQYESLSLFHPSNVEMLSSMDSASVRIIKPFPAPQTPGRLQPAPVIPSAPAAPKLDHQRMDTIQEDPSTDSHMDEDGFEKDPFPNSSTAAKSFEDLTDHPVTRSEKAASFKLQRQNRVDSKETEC
# Chain of MMP-3 (P08254 100-477): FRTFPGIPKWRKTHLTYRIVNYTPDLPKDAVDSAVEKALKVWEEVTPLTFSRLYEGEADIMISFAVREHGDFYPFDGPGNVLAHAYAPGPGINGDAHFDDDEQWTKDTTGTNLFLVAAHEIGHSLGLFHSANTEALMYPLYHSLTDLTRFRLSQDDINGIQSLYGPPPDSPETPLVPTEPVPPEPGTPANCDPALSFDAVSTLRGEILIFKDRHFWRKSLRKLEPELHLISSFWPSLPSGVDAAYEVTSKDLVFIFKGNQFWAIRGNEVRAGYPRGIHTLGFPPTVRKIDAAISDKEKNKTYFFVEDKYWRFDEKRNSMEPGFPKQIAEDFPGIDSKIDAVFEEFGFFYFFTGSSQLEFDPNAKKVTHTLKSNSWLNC
# T1 sequence (B9J3S4 94-765 limits assumed): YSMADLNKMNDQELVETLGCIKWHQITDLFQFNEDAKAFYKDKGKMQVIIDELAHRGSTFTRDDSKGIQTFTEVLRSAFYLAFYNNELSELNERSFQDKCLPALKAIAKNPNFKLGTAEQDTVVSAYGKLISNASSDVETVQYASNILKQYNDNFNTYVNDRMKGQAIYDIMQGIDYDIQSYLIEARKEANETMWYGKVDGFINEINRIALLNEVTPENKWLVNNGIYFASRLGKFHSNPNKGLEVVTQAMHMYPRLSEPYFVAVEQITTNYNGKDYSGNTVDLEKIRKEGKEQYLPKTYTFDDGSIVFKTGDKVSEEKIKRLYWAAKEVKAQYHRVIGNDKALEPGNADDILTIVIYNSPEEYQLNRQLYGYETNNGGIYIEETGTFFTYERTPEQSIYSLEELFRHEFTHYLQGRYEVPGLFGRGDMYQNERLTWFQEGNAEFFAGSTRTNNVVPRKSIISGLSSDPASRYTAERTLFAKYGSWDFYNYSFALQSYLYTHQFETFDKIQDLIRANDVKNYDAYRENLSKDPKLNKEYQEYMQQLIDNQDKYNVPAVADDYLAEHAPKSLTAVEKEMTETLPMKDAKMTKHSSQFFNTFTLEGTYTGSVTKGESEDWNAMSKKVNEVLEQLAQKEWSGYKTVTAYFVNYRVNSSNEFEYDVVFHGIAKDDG
smiles,measurement,setting,value
"CC(=O)c1ccc(N2C(=O)CC(S)C2=O)cc1 (centres unmarked) [Compound 25, 1-(4-Acetylphenyl)-3-mercaptopyrrolidine-2,5-dione]",inhibition at 100 µM,[1],99 ± 2%
same,inhibition at 100 µM,[2],< 10%
same,inhibition at 50 µM,"[3]; 50 µM compound, read-out: MMP-8 % inh @50µM",< 10%
same,inhibition at 100 µM,"[3]; read-out: MMP-8 % inhibition @ 100 μM, 100 μM compound",94 ± 1%
same,IC50,[4],> 100 µM
same,IC50,[5],3.4 ± 1.2 µM
same,IC50,[6],64 ± 7.5 µM
same,IC50,[7],> 100 µM
same,MIC,"[8]; Hathewaya histolytica, DSM1126",> 100 µM
same,MIC,[8],>100 µM
same,IC50,[9],60 ± 10 nM
same,inhibition at 1 µM,[9]; read-out: ColH-PD % inhibition @ 1 μM,95%
same,inhibition at 100 µM,[9]; read-out: ColH-PD % inhibition @ 100 μM,96 ± 2%
same,inhibition at 100 µM,[10],102 ± 3%
same,IC50,[11],> 100 µM
same,inhibition at 50 µM,"[12]; 50 µM compound, read-out: MMP-14 % inh @50µM",< 10%
same,inhibition at 100 µM,"[12]; read-out: MMP-14 % inhibition @ 100 μM, 100 μM compound",84 ± 8%
same,IC50,[13],> 100 µM
same,inhibition at 100 µM,[14],< 10%
same,times more active on LasB than its methoxy-analogue,[15],1.7 times
